{"source": "patent US11655492B2", "about": "“Activated formylglycine-generating enzymes and methods of producing and using the same” (R.P. Scherer Technologies, LLC, priority 2015, dated 2023)", "key": {"[1]": {"tested_on": "ATP production", "test": "ATP production dose response (Cell titerglo, 4 hour treatment)", "format": "cell-based", "description": "(§2) Several experiments were run treating cells with DCA at several concentrations (DCA: 0 μM; 16 μM; 80 μM; 400 μM; 2000 μM; 10,000 μM; and 50,000 μM) and treating cells with Cu^2+ (copper sulfate) and rotenone (Rotenone: 0 nM; 5 nM; 24 nM; 120 nM; 600 nM; 3000 nM; and 15,000 nM) at several concentrations. Cells were plated and 10 μL of DCA or rotenone was added for a 4 hour treatment. Cells were equilibrated to room temperature 100 μL/well of Cell titerglo reagent (Promega) was added to each well. The plates were shaken of 2 min, incubated at room temperature for 10 min, and then read on a plate reader."}, "[2]": {"molecular_target": "human FGE (Homo sapiens, UniProt Q8NBK3)", "sequence (Q8NBK3 34-374)": "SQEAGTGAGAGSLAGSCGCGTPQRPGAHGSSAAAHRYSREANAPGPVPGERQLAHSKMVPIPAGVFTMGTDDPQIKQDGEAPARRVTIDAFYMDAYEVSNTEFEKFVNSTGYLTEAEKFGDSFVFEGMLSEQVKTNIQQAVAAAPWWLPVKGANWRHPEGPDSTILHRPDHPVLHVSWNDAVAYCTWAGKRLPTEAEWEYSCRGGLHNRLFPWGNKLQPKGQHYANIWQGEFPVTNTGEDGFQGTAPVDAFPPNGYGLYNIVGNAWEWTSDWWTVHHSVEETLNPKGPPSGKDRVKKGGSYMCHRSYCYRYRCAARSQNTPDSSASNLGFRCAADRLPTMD", "test": "Effect of stimulators and inhibitors of oxidative phosphorylation on conversion", "format": "cell-based", "settings": "DCA 0-50,000 μM; rotenone 0-15,000 nM with Cu^2+", "description": "Experiments were performed to determine the effect of stimulators and inhibitors of oxidative phosphorylation on conversion efficiency for human FGE, as compared to Cu^2+.\nas §2"}, "[3]": {"tested_on": "SQR", "description": "A Western blotting was performed on lysates from cells treated with Cu^2+ or not treated with Cu^2+, using antibodies against SQR to determine whether Cu^2+ increased the levels of SQR. […] Experiments were also performed to test whether overexpression of SQR in Expi cells could be a substitute for Cu^2+ in increasing conversion."}, "[4]": {"tested_on": "CHO cells"}, "[5]": {"tested_on": "CT-1.1 tagged Her2", "test": "293 Expi transient co-transfection of FGE form and CT tagged antibody, conversion by mass-spectrometry", "format": "cell-based", "procedure": "A 293 Expi transient co-transfection system (Life Technologies) was used for producing antibodies having a formylglycine residue at a selected site. The system produced high antibody titers (100-500 mg/L) with variable (10-95%) conversion. […] Expi 293F that were treated with or without 50 μM copper sulfate prior to transfection were transiently co-transfected in three independent experiments with expression plasmids for full-length human FGE with an N-terminal KDEL (SEQ ID NO:7) amino acid sequence (+KDEL) and CT tagged antibody at a ratio of 3:1 antibody:FGE DNA. The culture was harvested at 5-6 days post transfection, titer assessed by ELISA, and the protein was purified and conversion was measured by mass-spectrometry.\nExpi 293F cells that were treated with or without 50 μM copper sulfate prior to transfection were transiently co-transfected with expression plasmids for various forms of human FGE (+KDEL, WT, myc-His) and CT tagged antibody at a ratio of 3:1 antibody:FGE DNA. The culture was harvested at 5 days post transfection, titer assessed by ELISA, the protein was purified and conversion was measured by mass-spectrometry."}, "[6]": {"molecular_target": "T1, FGE (Homo sapiens, UniProt Q8NBK3)", "T1 construct": "made in house", "T1 sequence (Q8NBK3 with tags, fused parts or gaps isoform Q8NBK3-4)": "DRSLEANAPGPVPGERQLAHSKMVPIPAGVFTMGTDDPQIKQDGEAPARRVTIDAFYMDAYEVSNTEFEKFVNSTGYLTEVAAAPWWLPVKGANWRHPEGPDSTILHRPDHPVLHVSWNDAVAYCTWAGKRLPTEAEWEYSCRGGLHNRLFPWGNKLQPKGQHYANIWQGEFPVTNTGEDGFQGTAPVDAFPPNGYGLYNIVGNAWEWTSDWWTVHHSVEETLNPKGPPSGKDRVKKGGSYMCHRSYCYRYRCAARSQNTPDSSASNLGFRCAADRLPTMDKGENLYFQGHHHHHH", "test": "FGE reaction mixtures with reductants or additives (product formation)", "format": "biochemical", "settings": "for rate of product formation: reducing agent used as stoichiometric reductant, in large excess", "description": "The specific activity of FGE was measured using a discontinuous enzymatic activity assay. […] The rate of reaction was determined by integrating the peak areas at 215 nm of the substrate cysteine (Csub) and product (fGly) peptides on reversed-phase HPLC. […] Each aqueous reaction solution (120 μL) contained Csub (100 μM), FGE (0.1-1 μM), DTT (1 mM), and buffer (25 mM TEAM, pH 9). A single time course included 5 data points collected at evenly spaced intervals. The reaction was initiated upon addition of FGE stock solution and vortexing for 3 s. The reaction vial was vortexed at 1,500 RPM and 25° C. in a thermomixer R (Eppendorf). Time points were hand quenched by adding 20 μL of reaction mixture to 2 μL of 1 M HCl using a micropipettor. After completion of the reaction, each time point was analyzed by RP-HPLC (see below).\nThe conversion of Cys to fGly used a 2 H^+/2 e^− oxidation of the substrate Cys thiol as well as exchange of sulfur for oxygen. […] However, because O2 is a 4 H^+/4 e^− acceptor, a reducing agent was used to provide a second equivalent of 2 H^+ and 2 e^−, completing the reduction from O2 to 2 mol H2O. […] A mixture of reductant (DTT) and O2 was used for routine activity measurements."}, "[7]": {"molecular_target": "Sc-FGE (Streptomyces coelicolor, UniProt Q9F3C7)", "sequence (Q9F3C7 whole entry)": "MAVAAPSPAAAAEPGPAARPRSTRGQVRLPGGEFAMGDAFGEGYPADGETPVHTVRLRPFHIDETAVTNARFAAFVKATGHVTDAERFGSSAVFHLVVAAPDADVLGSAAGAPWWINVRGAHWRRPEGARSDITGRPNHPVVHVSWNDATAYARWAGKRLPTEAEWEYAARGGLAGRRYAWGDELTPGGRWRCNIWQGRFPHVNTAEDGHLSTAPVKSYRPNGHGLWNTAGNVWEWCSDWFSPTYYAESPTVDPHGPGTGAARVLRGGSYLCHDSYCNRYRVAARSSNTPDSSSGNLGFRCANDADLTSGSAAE", "format": "biochemical, S. coelicolor"}, "[8]": {"molecular_target": "T2, Hs-cFGE (Homo sapiens, UniProt Q8NBK3)", "T2 sequence (Q8NBK3 with tags, fused parts or gaps isoform Q8NBK3-4)": "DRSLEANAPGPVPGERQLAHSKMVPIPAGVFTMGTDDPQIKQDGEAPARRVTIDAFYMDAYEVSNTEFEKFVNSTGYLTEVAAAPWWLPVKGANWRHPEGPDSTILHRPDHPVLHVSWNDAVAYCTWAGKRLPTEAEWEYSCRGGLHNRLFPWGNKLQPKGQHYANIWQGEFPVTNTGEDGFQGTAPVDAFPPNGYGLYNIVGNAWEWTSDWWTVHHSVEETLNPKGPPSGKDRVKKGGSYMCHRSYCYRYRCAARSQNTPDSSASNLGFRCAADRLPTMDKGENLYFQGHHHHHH"}, "[9]": {"settings": "as measured versus glutathione disulfide; cited from earlier work"}, "[10]": {"tested_on": "14 amino acid peptide ALCTPSRGSLFTGR (SEQ ID NO:8)", "test": "Discontinuous FGE activity assay on peptide substrate (RP-HPLC)", "format": "biochemical", "procedure": "[formula] where Et is the total enzyme in solution, and kcat and KM are the standard enzymatic parameters specified by the STRENDA commission. Units of enzyme specific activity are the katal, where 1 kat=1 mol·s^−1. Kinetic parameters were determined from nonlinear regression of [substrate] v. initial velocity using GraphPad prism.\nThe specific activity of FGE was measuring using a discontinuous enzymatic activity assay. The substrate for FGE was a 14 amino acid peptide containing the consensus sequence (H2N-[…]-COOH (SEQ ID NO:8)). The rate of reaction was determined by integrating the peak area at 215 nm of the starting material (Cys) and product (fGly) containing peptides on reversed-phase HPLC. The identity of product (and side product) peaks were determined by RP-HPLC MS/MS. Each aqueous reaction solution (60 μL) contained substrate peptide (100 μM), FGE (1 μM), DTT (1 mM), and buffer (25 mM triethanolamine, pH 9). A single time course consisted of 5 data points collected every 2 minutes. The reaction was initiated upon addition of FGE stock solution and vortexing for 3 s. Time points were quenched by diluting 10 μL of reaction mixture into 1 μL of 1 M HCl by hand with a micropipettor. After completion of the reaction, each time point was analyzed by RP-HPLC.\n(§1) Substrate, product, and side products of the FGE substrate peptide […] (SEQ ID NO:8) were separated on RP-HPLC over 7 min with isocratic 18% MeCN in water containing 0.1% TFA. The integrated area of the fGly (2.1 min), Cys (3.3 min), βME-DS (3.6 min), and Cys-DS (6.2 min) forms of the substrate were used to calculate total area and each fraction thereof.\nThe specific activity of FGE was measured using a discontinuous enzymatic activity assay. The substrate for FGE was a 14 amino acid peptide containing the CXPXR consensus sequence ([…] (SEQ ID NO:8)). The rate of reaction was determined by integrating the peak areas at 215 nm of the substrate cysteine (Csub) and product (fGly) peptides on reversed-phase HPLC. The identities of product (and side product) peaks were determined by RP-HPLC MS/MS (see below). Each aqueous reaction solution (120 μL) contained Csub (100 μM), FGE (0.1-1 μM), DTT (1 mM), and buffer (25 mM TEAM, pH 9). A single time course included 5 data points collected at evenly spaced intervals. The reaction was initiated upon addition of FGE stock solution and vortexing for 3 s. The reaction vial was vortexed at 1,500 RPM and 25° C. in a thermomixer R (Eppendorf). Time points were hand quenched by adding 20 μL of reaction mixture to 2 μL of 1 M HCl using a micropipettor. After completion of the reaction, each time point was analyzed by RP-HPLC (see below).\nas §1, with “integrated areas” for “integrated area”, “min), Csub” for “min), Cys”, “min), the Csub/βME disulfide (Csub-βME, 3.6” for “min), βME-DS (3.6”, “and substrate/substrate disulfide (Csub-Csub, 6.1” for “and Cys-DS (6.2”\nIndividual FGE reactions were initiated by rapidly mixing FGE into a premixed buffered solution of Csub and reducing agent. It was assumed that all buffered solutions contained oxygen at ˜270 μM at 25° C. (based upon Henry's law). Time points were chemically quenched by hand with HCl. […]. The identities of both the Cys- and fGly-containing peptides were confirmed by LC-MS/MS (FIG. 11). These assignments were then correlated with HPLC retention times (FIG. 14, panel a). The integrated peak areas of substrate and product were used to calculate the initial velocity of FGE (FIG. 14, panel b) using the method described by Boeker (Biochem. J., (1984), 223, 15; and Biochem. J., (1985), 226, 29)."}, "[11]": {"tested_on": "IgG containing the aldehyde tag", "test": "In vitro conversion of intact mAb with FGE, fGly by LC-MRM/MS", "format": "biochemical", "procedure": "DTT (20 mM) was added to a solution of mAb (20 μg) in buffered aqueous solution (25 mM NH4HCO3) to a final volume of 20 μL. The tube containing the sample was incubated at 37° C. for 15 min at 1500 RPM. Then, HCl (50 mM) was added to the solution and the tube was vortexed until mixed. Next, ammonium bicarbonate (100 mM) was added to the solution and the tube was vortexed until mixed. Trypsin (1 μg) and iodoacetamide (50 mM) were added, and the tube was incubated at 37° C. and 1500 RPM for 60 min in the dark. Finally, sodium citrate (150 mM, pH 5.5) and methoxylamine (100 mM) were added to the solution, and the tube was incubated at 37° C. for 16 h. The processed sample was then analyzed by LC-MRM/MS. The MRM transitions included modifications of the Cys-containing peptide including: cysteine, cysteine modified with iodoacetamide, formylglycine, formylglycine hydrate (including loss of water in the collision cell), and formylglycine methyl oxime. The abundance of each species was defined by its 5 most intense precursor/product ion pairs, which were integrated to give the total signal and relative fractions of each component. In the optimized digestion and capping procedure described above, unreacted Cys, fGly, or fGly-hydrate above background was not detected, observing only carboxyacetamidomethyl Cys (CAM) and the methyl oxime of fGly (MeOx). […]"}, "[12]": {"settings": "nonlinear regression to Michaelis-Menten equation"}}, "note": "Where “and” joins values, the source holds several entries; their conditions need not be identical. Equal values may be shown once. Entries after “also recorded” stand apart in the source; their conditions may differ. Read-outs that look alike come from different tables or passages of the source."}
{"molecule": "C=C(C)[C@H]1Cc2c(ccc3c2O[C@@H]2COc4cc(OC)c(OC)cc4[C@@H]2C3=O)O1", "note": "[rotenone, Rotenone]", "values": [{"measurement": "ATP production", "setting": "[1]", "result": "affected ATP production as expected"}, {"measurement": "effect on conversion", "setting": "[2]", "result": "no effect on conversion"}]}
{"molecule": "O=S(=O)([O-])[O-].[Cu+2]", "note": "[Cu^2+, copper(II) sulfate]", "values": [{"measurement": "levels of SQR", "setting": "[3]", "result": "No significant difference"}, {"measurement": "cell viability", "setting": "[4]", "result": "does not significantly change"}, {"measurement": "effect on conversion", "setting": "[5]", "result": "enhances conversion"}]}
{"molecule": "O[C@H](CS)[C@H](O)CS", "note": "(racemic) [DTT, dithiothreitol]", "values": [{"measurement": "rate of product formation", "setting": "[6]", "result": 3.27, "unit": "min⁻¹"}, {"measurement": "effect of pretreatment of activated enzyme on specific activity", "setting": "[7]; activated Sc-FGE, reductant and/or chelator, 15 mM each, 1 h, 37° C.", "result": "do not change"}, {"measurement": "effect of pretreatment on specific activity", "setting": "[7]; excess (100 molar equiv), 1 h at 25° C., reagent removed by gel filtration", "result": "did not change"}, {"measurement": "effect of treatment on specific activity", "setting": "[8]; 20 mM reducing agent on activated Hs-cFGE", "result": "unchanged specific activity"}, {"measurement": "thiol-disulfide exchange rate constant k", "setting": "[9]", "result": "6×10^5"}]}
{"molecule": "O=C(O)CN(CCN(CC(=O)O)CC(=O)O)CC(=O)O", "note": "[EDTA, Ethylenediaminetetraacetic acid]", "values": [{"measurement": "effect of pretreatment of activated enzyme on specific activity", "setting": "[7]", "result": "do not change; also recorded: did not change"}, {"measurement": "effect of pretreatment of activated enzyme on catalytic activity", "setting": "[8]; copper-treated Hs-cFGE, EDTA 5 molar equiv or KCN", "result": "did not change"}]}
{"molecule": "O=C(O)CCP(CCC(=O)O)CCC(=O)O", "note": "[TCEP, tris(carboxyethyl)phosphine]", "values": [{"measurement": "effect of pretreatment of activated enzyme on specific activity", "setting": "[7]", "result": "do not change"}, {"measurement": "effect of treatment on specific activity", "setting": "[8]", "result": "unchanged specific activity"}]}
{"molecule": "OCCS", "note": "[βME, β-mercaptoethanol]", "values": [{"measurement": "rate of product formation", "setting": "[6]", "result": 5.07, "unit": "min⁻¹"}, {"measurement": "thiol-disulfide exchange rate constant k", "setting": "[9]", "result": 1}]}
{"molecule": "OO", "note": "[H2O2, hydrogen peroxide]", "values": [{"measurement": "effect on product formation when added directly to the reaction", "setting": "[6]; additive in the in vitro FGE reaction mixture", "result": "halted the reaction"}]}
{"molecule": "Hs-cFGE: catalytic core of H. sapiens FGE with C-terminal His6 tag (SEQ ID NO. 11), expressed in Hi5 insect cells (protein) DRSLEANAPGPVPGERQLAHSKMVPIPAGVFTMGTDDPQIKQDGEAPARRVTIDAFYMDAYEVSNTEFEKFVNSTGYLTEVAAAPWWLPVKGANWRHPEGPDSTILHRPDHPVLHVSWNDAVAYCTWAGKRLPTEAEWEYSCRGGLHNRLFPWGNKLQPKGQHYANIWQGEFPVTNTGEDGFQGTAPVDAFPPNGYGLYNIVGNAWEWTSDWWTVHHSVEETLNPKGPPSGKDRVKKGGSYMCHRSYCYRYRCAARSQNTPDSSASNLGFRCAADRLPTMDKGENLYFQGHHHHHH", "values": [{"measurement": "increase of specific activity on activation", "setting": "[10]; 5 molar equiv of CuSO4, 1 h at 25° C., activated vs as purified", "result": 3}, {"measurement": "specific activity", "setting": "[10]; after activation with 5 molar equiv of CuSO4, 1 h at 25° C., excess copper removed", "result": "3,050±115 pkat·mg^−1"}, {"measurement": "specific activity", "setting": "[10]; as purified from cell culture, not activated", "result": "1,143 pkat·mg^−1 and 1,143±84 pkat·mg^−1"}, {"measurement": "efficiency relative to bacterial counterpart (Sc-FGE)", "setting": "[10]; from kcat/KM", "result": "approximately 10 fold"}, {"measurement": "Km", "setting": "[10]; [12]", "result": 0.34, "unit": "µM"}, {"measurement": "kcat", "setting": "[10]; [12]", "result": 0.101, "unit": "s⁻¹"}, {"measurement": "fGly content in the antibody", "setting": "[11]; after in vitro conversion", "result": "95-100%"}, {"measurement": "conversion yield from Cys to fGly", "setting": "[11]; in vitro conversion of aldehyde tagged mAb", "result": "90-100% and > 90%"}]}
